# Species on record: Rattus norvegicus
# Test: Open TG-GATES - Regimen: Daily Repeat
# Type: toxicity, organism-based, Sprague-Dawley
# Set-up: regimen Daily Repeat, gender Male, age 6 weeks
# Conditions: in vivo, po, 80 mg/kg, route gavage, dose level Middle; for APTT / Bas / Eos / Fbg / Hb / Ht / Lym / MCH / MCHC / MCV / Mono / Neu / PT / Plat / RBC / Ret / WBC: tissue Blood; for KIDNEY_L / KIDNEY_R / KIDNEY_TOTAL: tissue Kidney; for LIVER: tissue Liver; for A/G / ALP / ALT / AST / BUN / CRE / Ca / Cl / DBIL / GLC / IP / K / LDH / Na / PL / RALB / TBIL / TC / TG / TP / gamma-GTP: tissue Plasma
structure (smiles),measurement,setting,value
CCSCC[C@H](N)C(=O)O [ETHIONINE],TERMINAL_BW,"72 h, time 3 day",221.5 g
same,APTT,"72 h, time 3 day",24.9 s
same,Bas,"72 h, time 3 day",0%
same,Eos,"72 h, time 3 day",1%
same,Fbg,"72 h, time 3 day",201 mg/dL
same,Hb,"72 h, time 3 day",14 g/dL
same,Ht,"72 h, time 3 day",41.5%
same,Lym,"72 h, time 3 day",85.4%
same,MCH,"72 h, time 3 day",20.9 pg
same,MCHC,"72 h, time 3 day",33.7%
same,MCV,"72 h, time 3 day",62.1 fL
same,Mono,"72 h, time 3 day",2.8%
same,Neu,"72 h, time 3 day",9.6%
same,PT,"72 h, time 3 day",15.3 s
same,Plat,"72 h, time 3 day",123 x10_4/uL
same,RBC,"72 h, time 3 day",669.2 x10_4/ul
same,Ret,"72 h, time 3 day",4.8%
same,WBC,"72 h, time 3 day",93.2 x10_2/uL
same,KIDNEY_L,"72 h, time 3 day",1 g
same,KIDNEY_R,"72 h, time 3 day",1 g
same,KIDNEY_TOTAL,"72 h, time 3 day",2 g
same,LIVER,"72 h, time 3 day",9.7 g
same,A/G,"72 h, time 3 day",1.8
same,ALP,"72 h, time 3 day",983 IU/L
same,ALT,"72 h, time 3 day",37.8 IU/L
same,AST,"72 h, time 3 day",65.6 IU/L
same,BUN,"72 h, time 3 day",17.2 mg/dL
same,CRE,"72 h, time 3 day",0.4 mg/dL
same,Ca,"72 h, time 3 day",10.5 mg/dL
same,Cl,"72 h, time 3 day",102 meq/L
same,DBIL,"72 h, time 3 day",0.088 mg/dL
same,GLC,"72 h, time 3 day",197.8 mg/dL
same,IP,"72 h, time 3 day",8.2 mg/dL
same,K,"72 h, time 3 day",3.8 meq/L
same,LDH,"72 h, time 3 day",211 IU/L
same,Na,"72 h, time 3 day",141.6 meq/L
same,PL,"72 h, time 3 day",118.2 mg/dL
same,RALB,"72 h, time 3 day",3.6 g/dL
same,TBIL,"72 h, time 3 day",0.2 mg/dL
same,TC,"72 h, time 3 day",47.2 mg/dL
same,TG,"72 h, time 3 day",94.8 mg/dL
same,TP,"72 h, time 3 day",5.7 g/dL
same,gamma-GTP,"72 h, time 3 day",1.2 IU/L
same,TERMINAL_BW,"[…], time 7 day",252.3 g
same,TERMINAL_BW,"[…], time 14 day",307.2 g
same,TERMINAL_BW,"[…], time 28 day",355.5 g
same,APTT,"[…], time 7 day",25.7 s
same,Bas,"[…], time 7 day",0%
same,Eos,"[…], time 7 day",0.8%
same,Fbg,"[…], time 7 day",216.4 mg/dL
same,Hb,"[…], time 7 day",14.2 g/dL
same,Ht,"[…], time 7 day",41.8%
same,Lym,"[…], time 7 day",81.8%
same,MCH,"[…], time 7 day",20.8 pg
same,MCHC,"[…], time 7 day",33.9%
same,MCV,"[…], time 7 day",61.4 fL
same,Mono,"[…], time 7 day",2%
same,Neu,"[…], time 7 day",14.4%
same,PT,"[…], time 7 day",15 s
same,Plat,"[…], time 7 day",120.9 x10_4/uL
same,RBC,"[…], time 7 day",681.2 x10_4/ul
same,Ret,"[…], time 7 day",3.1%
same,WBC,"[…], time 7 day",117.7 x10_2/uL
same,APTT,"[…], time 14 day",24 s
same,Bas,"[…], time 14 day",0%
same,Eos,"[…], time 14 day",1%
same,Fbg,"[…], time 14 day",214.6 mg/dL
same,Hb,"[…], time 14 day",14.4 g/dL
same,Ht,"[…], time 14 day",42%
same,Lym,"[…], time 14 day",73%
same,MCH,"[…], time 14 day",20.3 pg
same,MCHC,"[…], time 14 day",34.1%
same,MCV,"[…], time 14 day",59.4 fL
same,Mono,"[…], time 14 day",3%
same,Neu,"[…], time 14 day",23%
same,PT,"[…], time 14 day",14.2 s
same,Plat,"[…], time 14 day",121.6 x10_4/uL
same,RBC,"[…], time 14 day",708.4 x10_4/ul
same,Ret,"[…], time 14 day",4.1%
same,WBC,"[…], time 14 day",143.7 x10_2/uL
same,APTT,"[…], time 28 day",23.9 s
same,Bas,"[…], time 28 day",0%
same,Eos,"[…], time 28 day",0.6%
same,Fbg,"[…], time 28 day",197 mg/dL
same,Hb,"[…], time 28 day",15 g/dL
same,Ht,"[…], time 28 day",43.1%
same,Lym,"[…], time 28 day",78.6%
same,MCH,"[…], time 28 day",19.7 pg
same,MCHC,"[…], time 28 day",34.9%
same,MCV,"[…], time 28 day",56.3 fL
same,Mono,"[…], time 28 day",2.4%
same,Neu,"[…], time 28 day",17.6%
same,PT,"[…], time 28 day",14.6 s
same,Plat,"[…], time 28 day",114.3 x10_4/uL
same,RBC,"[…], time 28 day",765.2 x10_4/ul
same,Ret,"[…], time 28 day",1.8%
same,WBC,"[…], time 28 day",115.9 x10_2/uL
same,KIDNEY_L,"[…], time 7 day",1.1 g
same,KIDNEY_R,"[…], time 7 day",1.1 g
same,KIDNEY_TOTAL,"[…], time 7 day",2.2 g
same,KIDNEY_L,"[…], time 14 day",1.2 g
same,KIDNEY_R,"[…], time 14 day",1.2 g
same,KIDNEY_TOTAL,"[…], time 14 day",2.3 g
same,KIDNEY_L,"[…], time 28 day",1.3 g
same,KIDNEY_R,"[…], time 28 day",1.3 g
same,KIDNEY_TOTAL,"[…], time 28 day",2.7 g
same,LIVER,"[…], time 7 day",10.5 g
same,LIVER,"[…], time 14 day",13.2 g
same,LIVER,"[…], time 28 day",14.1 g
same,A/G,"[…], time 7 day",1.8
same,ALP,"[…], time 7 day",1213.6 IU/L
same,ALT,"[…], time 7 day",37.4 IU/L
same,AST,"[…], time 7 day",68.6 IU/L
same,BUN,"[…], time 7 day",17.6 mg/dL
same,CRE,"[…], time 7 day",0.4 mg/dL
same,Ca,"[…], time 7 day",10.4 mg/dL
same,Cl,"[…], time 7 day",103.6 meq/L
same,DBIL,"[…], time 7 day",0.1 mg/dL
same,GLC,"[…], time 7 day",186.6 mg/dL
same,IP,"[…], time 7 day",7.3 mg/dL
same,K,"[…], time 7 day",3.8 meq/L
same,LDH,"[…], time 7 day",193.2 IU/L
same,Na,"[…], time 7 day",141.6 meq/L
same,PL,"[…], time 7 day",126.6 mg/dL
same,RALB,"[…], time 7 day",3.6 g/dL
same,TBIL,"[…], time 7 day",0.2 mg/dL
same,TC,"[…], time 7 day",46.4 mg/dL
same,TG,"[…], time 7 day",122.6 mg/dL
same,TP,"[…], time 7 day",5.5 g/dL
same,gamma-GTP,"[…], time 7 day",0.8 IU/L
same,A/G,"[…], time 14 day",1.8
same,ALP,"[…], time 14 day",894 IU/L
same,ALT,"[…], time 14 day",33 IU/L
same,AST,"[…], time 14 day",58 IU/L
same,BUN,"[…], time 14 day",16.6 mg/dL
same,CRE,"[…], time 14 day",0.4 mg/dL
same,Ca,"[…], time 14 day",10.4 mg/dL
same,Cl,"[…], time 14 day",102.4 meq/L
same,DBIL,"[…], time 14 day",0.098 mg/dL
same,GLC,"[…], time 14 day",201.8 mg/dL
same,IP,"[…], time 14 day",7.3 mg/dL
same,K,"[…], time 14 day",3.4 meq/L
same,LDH,"[…], time 14 day",187.8 IU/L
same,Na,"[…], time 14 day",141.4 meq/L
same,PL,"[…], time 14 day",141.8 mg/dL
same,RALB,"[…], time 14 day",3.8 g/dL
same,TBIL,"[…], time 14 day",0.2 mg/dL
same,TC,"[…], time 14 day",55.4 mg/dL
same,TG,"[…], time 14 day",128 mg/dL
same,TP,"[…], time 14 day",5.9 g/dL
same,gamma-GTP,"[…], time 14 day",0.8 IU/L
same,A/G,"[…], time 28 day",1.7
same,ALP,"[…], time 28 day",747.8 IU/L
same,ALT,"[…], time 28 day",30.2 IU/L
same,AST,"[…], time 28 day",55.8 IU/L
same,BUN,"[…], time 28 day",19.4 mg/dL
same,CRE,"[…], time 28 day",0.5 mg/dL
same,Ca,"[…], time 28 day",10.2 mg/dL
same,Cl,"[…], time 28 day",105.8 meq/L
same,DBIL,"[…], time 28 day",0.1 mg/dL
same,GLC,"[…], time 28 day",187.4 mg/dL
same,IP,"[…], time 28 day",6.7 mg/dL
same,K,"[…], time 28 day",3.7 meq/L
same,LDH,"[…], time 28 day",220.4 IU/L
same,Na,"[…], time 28 day",142.6 meq/L
same,PL,"[…], time 28 day",138.6 mg/dL
same,RALB,"[…], time 28 day",3.8 g/dL
same,TBIL,"[…], time 28 day",0.2 mg/dL
same,TC,"[…], time 28 day",57.4 mg/dL
same,TG,"[…], time 28 day",124 mg/dL
same,TP,"[…], time 28 day",6 g/dL
same,gamma-GTP,"[…], time 28 day",1 IU/L

# From ChEMBL document CHEMBL3885861, “Open TG-GATES”
